Measurements: ChEMBL document CHEMBL3877269, “Structure-activity relationships and optimization of acyclic acylphloroglucinol analogues as novel antimicrobial agents” (Eur J Med Chem, 2017)
In brackets after ≈: the same amount, converted by molar mass. Activity calls are given as the source filed them. No cut-off for these calls is given here.

Legend:
Bacillus subtilis = test: Antibacterial activity against Bacillus subtilis ATCC 11774 after 8 to 12 hrs by resazurin dye based microdilution method; assay type: functional
Staphylococcus aureus [1] = test: Antibacterial activity against drug-susceptible Staphylococcus aureus ATCC 6538 after 8 to 12 hrs by resazurin dye based microdilution method; assay type: functional
Bacillus cereus = test: Antibacterial activity against Bacillus cereus ATCC 10876 after 8 to 12 hrs by resazurin dye based microdilution method; assay type: functional
[2] = Selectivity ratio of IC50 for mouse RAW264.7 cells to MIC for methicillin-resistant Staphylococcus aureus JCSC 2172; assay type: ADME
Escherichia coli = test: Antibacterial activity against Escherichia coli ATCC 8739 after 8 to 12 hrs by resazurin dye based microdilution method; assay type: functional
Bacillus thuringiensis = test: Antibacterial activity against Bacillus thuringiensis ATCC 10792 after 8 to 12 hrs by resazurin dye based microdilution method; assay type: functional
Staphylococcus aureus [3] = test: Antibacterial activity against methicillin-resistant Staphylococcus aureus JCSC 2172 after 8 to 12 hrs by resazurin dye based microdilution method; assay type: functional
[4] = Cytotoxicity against mouse RAW264.7 cells assessed as reduction in cell viability after 24 hrs by MTT assay; assay type: toxicity
[5] = Solubility of the compound in DMSO; assay type: physicochemical
Staphylococcus aureus [6] = test: Disruption of cytoplasmic membrane potential in methicillin-resistant Staphylococcus aureus JCSC 2172 at 8 times MIC after 4 hrs by SYTOX green dye based fluorescence assay; assay type: functional
Staphylococcus aureus [7] = test: Potency index, ratio of vancomycin MIC to compound MIC for methicillin-resistant Staphylococcus aureus JCSC 2172; assay type: functional
Staphylococcus aureus [8] = test: Bactericidal activity against methicillin-resistant Staphylococcus aureus JCSC 2172 assessed as reduction in CFU count at 4 times MIC after 24 hrs by time-kill assay; assay type: functional; parameters: scale not given: the % may be the effect or the level left
Staphylococcus aureus [9] = test: Induction of cell lysis in methicillin-resistant Staphylococcus aureus JCSC 2172 at 8 times MIC after 4 hrs by osmium tetroxide staining based scanning electron microscopic method; assay type: functional
Staphylococcus aureus [10] = test: Bacteriostatic activity against methicillin-resistant Staphylococcus aureus JCSC 2172 at 0.5 to 2 times MIC up to 10 hrs by time-kill assay; assay type: functional
Staphylococcus aureus [11] = test: Bactericidal activity against methicillin-resistant Staphylococcus aureus JCSC 2172 assessed as 3-log reduction in bacterial colony at 4 times MIC up to 4 hrs by time-kill assay; assay type: functional
Staphylococcus aureus [12] = test: Bactericidal activity against methicillin-resistant Staphylococcus aureus JCSC 2172 assessed induction of membrane potential dissipation at 0.5 to 8 times MIC by DiSC3-5 probe based fluorescence assay; assay type: functional
Staphylococcus aureus [13] = test: Bactericidal activity against methicillin-resistant Staphylococcus aureus JCSC 2172 assessed as 3-log reduction in bacterial colony at 4 times MIC after 10 hrs by time-kill assay; assay type: functional
Staphylococcus aureus [14] = test: Disruption of cytoplasmic membrane potential in methicillin-resistant Staphylococcus aureus JCSC 2172 at 10 ug/ml after 4 hrs by SYTOX green dye based fluorescence assay; assay type: functional

Row | Structure (SMILES) | MIC (Bacillus subtilis) [µg/mL] | MIC (Staphylococcus aureus [1]) [µg/mL] | MIC (Bacillus cereus) [µg/mL] | selectivity ratio [2] | MIC (Escherichia coli) [µg/mL] | MIC (Bacillus thuringiensis) [µg/mL] | MIC (Staphylococcus aureus [3]) [µg/mL] | IC50 at 24 h [4] [µg/mL] | also measured
1 | CCCCCCCCCCCC(=O)c1c(O)cc(O)c([C@@H](CC(C)C)C2=C(O)C(C)(C)C(=O)C(C)(C)C2=O)c1O | 0.25 (≈ 0.447 µM) | 0.5 (≈ 0.895 µM) | 1 (≈ 1.79 µM) | 15.8 | > 32 | 0.5 (≈ 0.895 µM) | 0.5 (≈ 0.895 µM) | 7.9 (≈ 14.1 µM) | 
2 | CC(C)C[C@@H](C1=C(O)C(C)(C)C(=O)C(C)(C)C1=O)c1c(O)cc(O)c(C(=O)CCc2ccccc2)c1O |  | 4 (≈ 7.86 µM) |  |  |  |  | 8 (≈ 15.7 µM) |  | 
3 | CC(C)CC(=O)c1c(O)cc(O)c([C@@H](CC(C)C)C2=C(O)C(C)(C)C(=O)C(C)(C)C2=O)c1O |  | 8 (≈ 17.4 µM) |  |  |  |  | 8 (≈ 17.4 µM) |  | 
4 | CCCCCCC(=O)c1c(O)cc(O)c([C@@H](CC(C)C)C2=C(O)C(C)(C)C(=O)C(C)(C)C2=O)c1O | 0.25 (≈ 0.512 µM) | 0.5 (≈ 1.02 µM) | 0.5 (≈ 1.02 µM) | 16.7 | > 32 | 0.5 (≈ 1.02 µM) | 0.5 (≈ 1.02 µM) | 8.8 (≈ 18 µM) | 
5 | CCCCC(=O)c1c(O)cc(O)c([C@@H](CC(C)C)C2=C(O)C(C)(C)C(=O)C(C)(C)C2=O)c1O |  | 4 (≈ 8.68 µM) |  |  |  |  | 8 (≈ 17.4 µM) |  | 
6 | CCC(=O)c1c(O)cc(O)c([C@@H](CC(C)C)C2=C(O)C(C)(C)C(=O)C(C)(C)C2=O)c1O |  | 8 (≈ 18.5 µM) |  |  |  |  | 8 (≈ 18.5 µM) |  | 
7 | CC(C)C[C@@H](C1=C(O)C(C)(C)C(=O)C(C)(C)C1=O)c1c(O)cc(O)c(C(=O)Cc2ccccc2)c1O |  | 16 (≈ 32.4 µM) |  |  |  |  | 16 (≈ 32.4 µM) |  | 
8 | CC(C)C[C@@H](C1=C(O)C(C)(C)C(=O)C(C)(C)C1=O)c1c(O)cc(O)c(C=O)c1O |  | > 32 |  |  |  |  | > 32 |  | 
9 | CCCCCCCCCCCCCC(=O)c1c(O)cc(O)c([C@@H](CC(C)C)C2=C(O)C(C)(C)C(=O)C(C)(C)C2=O)c1O | 8 (≈ 13.6 µM) | 0.5 (≈ 0.852 µM) | 4 (≈ 6.82 µM) | 13.1 | > 32 | 2 (≈ 3.41 µM) | 1 (≈ 1.7 µM) | 13.1 (≈ 22.3 µM) | solubility [5]: Insoluble
10 | CC(=O)c1c(O)cc(O)c([C@@H](CC(C)C)C2=C(O)C(C)(C)C(=O)C(C)(C)C2=O)c1O |  | 4 (≈ 9.56 µM) |  |  |  |  | 4 (≈ 9.56 µM) |  | 
11 | CCCCCCCCC(=O)c1c(O)cc(O)c([C@@H](CC(C)C)C2=C(O)C(C)(C)C(=O)C(C)(C)C2=O)c1O | 0.25 (≈ 0.484 µM) | 0.25 (≈ 0.484 µM) | 0.5 (≈ 0.968 µM) | 16.4 | > 32 | 0.5 (≈ 0.968 µM) | 0.5 (≈ 0.968 µM) | 8.2 (≈ 15.9 µM) | 
12 | CCCCCCCC(=O)c1c(O)cc(O)c([C@@H](CC(C)C)C2=C(O)C(C)(C)C(=O)C(C)(C)C2=O)c1O | 0.13 (≈ 0.259 µM) | 0.25 (≈ 0.497 µM) | 0.25 (≈ 0.497 µM) | 20.4 | > 32 | 0.25 (≈ 0.497 µM) | 0.25 (≈ 0.497 µM) | 5.1 (≈ 10.1 µM) | Activity (Staphylococcus aureus [6]): Active; Ratio (Staphylococcus aureus [7]): 4; Activity (Staphylococcus aureus [8]): 99.99%; Activity (Staphylococcus aureus [9]): Active; Activity (Staphylococcus aureus [10]): >90%; Activity (Staphylococcus aureus [11]): Active; Activity (Staphylococcus aureus [12]): Active
13 | CC(C)C[C@@H](C1=C(O)C(C)(C)C(=O)C(C)(C)C1=O)c1c(O)cc(O)c(C(=O)C2CCC2)c1O |  | 16 (≈ 34.9 µM) |  |  |  |  | 16 (≈ 34.9 µM) |  | 
14 | CC(C)C[C@@H](C1=C(O)C(C)(C)C(=O)C(C)(C)C1=O)c1c(O)cc(O)c(C(=O)C2CCCC2)c1O |  | 32 (≈ 67.7 µM) |  |  |  |  | > 32 |  | 
15 | CN[C@H](CC(C)C)C(=O)N[C@H]1C(=O)N[C@@H](CC(N)=O)C(=O)N[C@H]2C(=O)N[C@H]3C(=O)N[C@H](C(=O)N[C@H](C(=O)O)c4cc(O)cc(O)c4-c4cc3ccc4O)[C@H](O)c3ccc(c(Cl)c3)Oc3cc2cc(c3O[C@@H]2O[C@H](CO)[C@@H](O)[C@H](O)[C@H]2O[C@H]2C[C@](C)(N)[C@H](O)[C@H](C)O2)Oc2ccc(cc2Cl)[C@H]1O [VANCOMYCIN] | 0.13 (≈ 0.0897 µM) |  | 0.25 (≈ 0.173 µM) |  | > 32 | 1 (≈ 0.69 µM) |  |  | Activity (Staphylococcus aureus [13]): Active
16 | CCCCCCCCCCCCCCCC(=O)c1c(O)cc(O)c([C@@H](CC(C)C)C2=C(O)C(C)(C)C(=O)C(C)(C)C2=O)c1O | 16 (≈ 26 µM) | 1 (≈ 1.63 µM) | 8 (≈ 13 µM) | 17.5 | > 32 | 2 (≈ 3.25 µM) | 1 to 2 (≈ 1.63 to 3.25 µM) | 17.5 (≈ 28.5 µM) | solubility [5]: Insoluble
17 | CCCC(=O)c1c(O)cc(O)c([C@@H](CC(C)C)C2=C(O)C(C)(C)C(=O)C(C)(C)C2=O)c1O |  | 32 (≈ 71.7 µM) |  |  |  |  | 32 (≈ 71.7 µM) |  | 
18 | CC[C@H](C)[C@H](NC(=O)CN)C(=O)NCC(=O)N[C@@H](C)C(=O)N[C@H](C(=O)N[C@@H](CC(C)C)C(=O)N[C@@H](CCCCN)C(=O)N[C@H](C(=O)N[C@@H](CC(C)C)C(=O)N[C@H](C(=O)N[C@H](C(=O)NCC(=O)N[C@@H](CC(C)C)C(=O)N1CCC[C@H]1C(=O)N[C@@H](C)C(=O)N[C@@H](CC(C)C)C(=O)N[C@H](C(=O)N[C@@H](CO)C(=O)N[C@@H](Cc1c[nH]c2ccccc12)C(=O)N[C@H](C(=O)N[C@@H](CCCCN)C(=O)N[C@@H](CCCNC(=N)N)C(=O)N[C@@H](CCCCN)C(=O)N[C@@H](CCCNC(=N)N)C(=O)N[C@@H](CCC(N)=O)C(=O)N[C@@H](CCC(N)=O)C(N)=O)[C@@H](C)CC)[C@@H](C)CC)[C@@H](C)O)[C@@H](C)O)C(C)C)C(C)C |  |  |  |  |  |  |  |  | Activity (Staphylococcus aureus [14]): Active
19 | CCCCCCCCCC(=O)c1c(O)cc(O)c([C@@H](CC(C)C)C2=C(O)C(C)(C)C(=O)C(C)(C)C2=O)c1O | 0.25 (≈ 0.471 µM) | 0.25 (≈ 0.471 µM) | 1 (≈ 1.88 µM) | 20.4 | > 32 | 0.5 (≈ 0.942 µM) | 0.25 (≈ 0.471 µM) | 5.1 (≈ 9.61 µM) | 
20 | CC(C)C[C@@H](C1=C(O)C(C)(C)C(=O)C(C)(C)C1=O)c1c(O)cc(O)c(C(=O)C(C)C)c1O |  | 16 (≈ 35.8 µM) |  |  |  |  | 16 (≈ 35.8 µM) |  | 
21 | CC(C)C[C@@H](C1=C(O)C(C)(C)C(=O)C(C)(C)C1=O)c1c(O)cc(O)c(C(=O)C2CCCCC2)c1O |  | 4 (≈ 8.22 µM) |  |  |  |  | 4 (≈ 8.22 µM) |  | 
22 | CCCCCC(=O)c1c(O)cc(O)c([C@@H](CC(C)C)C2=C(O)C(C)(C)C(=O)C(C)(C)C2=O)c1O |  | 2 (≈ 4.21 µM) |  |  |  |  | 2 (≈ 4.21 µM) |  | 
23 | CCCCCCCCCCC(=O)c1c(O)cc(O)c([C@@H](CC(C)C)C2=C(O)C(C)(C)C(=O)C(C)(C)C2=O)c1O | 0.25 (≈ 0.459 µM) | 0.25 (≈ 0.459 µM) | 0.5 (≈ 0.918 µM) | 22.2 | > 32 | 0.25 (≈ 0.459 µM) | 0.5 (≈ 0.918 µM) | 11.1 (≈ 20.4 µM) | 
